Experimental data taken from PMC6058520 (Drug Delivery, 2018).
Several values for one entry are separate records, joined by “and”; a condition that tells them apart may be missing. Equal values may be shown once. Square brackets hold non-standard residues; d marks the D form. Peptide text beside a SMILES is read from it.

How the values were obtained:
[1] = system: BEAS-2B human bronchial epithelial cells; test: Cellular uptake of FITC-labeled peptides, flow cytometry; assay type: cell-based; conditions: FITC-labeled peptides 5 µM in BEGM, BEAS-2B cells, 30 min, 37 °C, p < .05
Method: Cellular uptake assays were carried out to assess the membrane permeability of the new peptides, as previously described (Bae et al., [2016]). Briefly, BEAS-2B human bronchial epithelial cells (American Type Culture Collection [ATCC], Manassas, VA) were maintained in bronchial epithelial growth medium (BEGM; Lonza, Walkersville, MD) and 2 × 10^5 cells/well were seeded in 12-well plates. After 24 h, the cells were washed twice with 1 mL phosphate-buffered saline (PBS) and incubated with FITC-labeled peptides (5 µM) in BEGM for 30 min at 37 °C. The cells were then washed three times with ice-cold PBS to remove cell surface-bound peptides. After trypsinization, the cells were collected by centrifugation (1000 × g for 5 min), washed and finally resuspended in 1 mL ice-cold PBS. The internalized FITC was measured using fluorescence-activated cell sorting on a FACSCalibur flow cytometer (Becton Dickinson, San Jose, CA, USA) at emission and excitation wavelengths of 510 and 530 nm, respectively. Assays were performed in triplicate and repeated at least three times. Flow cytometric analyses were accomplished using WinMDI v.2.8 software.

[2] = Pharmacokinetics of insulin/TCTP-PTD analog mixtures in normal rats (plasma insulin, ELISA); assay type: in vivo, rat; conditions: for BA (relative bioavailability compared to s.c.) / AUC / Cmax / Tmax: mean ± SEM (n = 5–7); for Cmax / Tmax: ELISA
Method: Rats were fasted for 16 h with access to water, anesthetized by intraperitoneal injection of sodium pentobarbital (60 mg/kg), and placed in the supine position. […] Blood samples (100 µL) were collected from the rat tail 5, 10, 20, 30, 60, 90, 120 and 180 min after dosing and centrifuged at 5000 × g for 25 min to obtain plasma. […] Relative BA was calculated using the following formula: BA(%)=(AUCnasal×Doses.c.)/(AUCs.c×Dosenasal)×100%

[3] = D-form compared with L-TCTP-PTD 13; ref Bae et al., 2016; cited from earlier work
Description: Therefore, the D-TCTP-PTD analogs could negatively affect insulin delivery through the nasal mucosa.

[4] = ref Bae & Lee, 2013; cited from earlier work
Description: We previously reported that the human translationally controlled tumor protein (TCTP) contains a PTD at its N-terminus (TCTP-PTD) with the amino acid sequence […] al., [2011a]). To improve the penetration of peptides through the cell membrane, we designed variant peptides modified from TCTP-PTD. […] Therefore, the D-TCTP-PTD analogs could negatively affect insulin delivery through the nasal mucosa.

[5] = system: rats with alloxan-induced diabetes; test: Pharmacodynamics (blood glucose) of insulin/TCTP-PTD analog mixtures in diabetic rats; assay type: in vivo, rat; conditions: area above blood glucose curve, mean ± SEM (n = 6–8)
Method: After 5 days, rats with fasting blood glucose levels in the range of 230-300 mg/dL were selected for the pharmacodynamic studies. […] Then, they were anesthetized by intraperitoneal injections of sodium pentobarbital (60 mg/kg). […] Blood samples were collected from the tip of the rat tail, and blood glucose levels were directly measured using an Accu-Chek glucose meter (Roche Diagnostics, Seoul, Korea). […] The area above the blood glucose curve (AAC) was calculated according to the trapezoid rule. The F% was calculated using the following equation: F%=([…])×100%

[6] = insulin 1 IU/kg intranasal plus 0.1 mM PTD
[7] = insulin 1 IU/kg intranasal plus 0.25 mM PTD
[8] = plasma insulin AUC0-180 min, insulin 1 IU/kg intranasal plus 0.1 mM PTD
[9] = plasma insulin AUC0-180 min, insulin 1 IU/kg intranasal plus 0.25 mM PTD
[10] = plasma insulin, insulin 1 IU/kg intranasal plus 0.1 mM PTD
[11] = plasma insulin, insulin 1 IU/kg intranasal plus 0.25 mM PTD

Row | Molecule | cellular uptake capacity compared with L-TCTP-PTD 13 (in words) [1] | BA (relative bioavailability compared to s.c.) [2, 6] [%] | BA (relative bioavailability compared to s.c.) [2, 7] | AUC [2, 8] [μU/mL·min] | AUC [2, 9] [μU/mL·min] | Cmax [2, 10] [μU/mL] | Tmax [2, 10] [min] | Cmax [2, 11] [μU/mL] | Tmax [2, 11] [min] | antigen (ovalbumin) carrier potency through nasal mucosa (in words) [3] | nasal absorption of insulin compared to insulin alone (in words) [4] | AUC ([2]; AUC0-180 min, insulin s.c., 0.25 IU/kg) [μU/mL·min] | AUC ([2]; AUC0-180 min, trapezoid rule, insulin alone, intranasal, 5 IU/kg) [μU/mL·min] | plasma insulin after intranasal insulin alone (in words) ([2]; insulin 1 IU/kg intranasal, alone) | Cmax ([2]; insulin s.c., 0.25 IU/kg) [μU/mL] | AAC0–240 min ([5]; insulin alone, intranasal, 2 IU/kg) [% glucose/min] | AAC0–240 min ([5]; insulin s.c., 1 IU/kg) [% glucose/min]
1 | CC[C@H](C)[C@H](NC(=O)[C@H](CC(C)C)NC(=O)[C@H](CC(C)C)NC(=O)[C@H](CCCNC(=N)N)NC(=O)[C@H](Cc1ccccc1)NC(=O)[C@@H](NC(=O)[C@@H](NC(=O)[C@H](CCSC)NC(C)=O)[C@@H](C)CC)[C@@H](C)CC)C(=O)N[C@@H](CO)C(=O)N[C@@H](Cc1c[nH]cn1)C(=O)N[C@@H](CCCCN)C(=O)N[C@@H](CCCCN)C(N)=O [L-TCTP-PTD 13M1] (Ac-MIIFRLLISHKK-NH2) | lower | 20.9 ± 1.4 | 10.1 ± 2.4% | 1966.3 ± 130.5 | 951.7 ± 225.9 | 47.1 ± 3.1 | 10.0 ± 0.0 | 15.0 ± 3.3 | 13.3 ± 2.1 | – | – | – | – | – | – | – | –
2 | CC[C@@H](C)[C@@H](NC(=O)[C@@H](CC(C)C)NC(=O)[C@@H](C)NC(=O)[C@@H](CCCNC(=N)N)NC(=O)[C@@H](Cc1ccccc1)NC(=O)[C@H](NC(=O)[C@H](NC(=O)[C@@H](CCSC)NC(C)=O)[C@H](C)CC)[C@H](C)CC)C(=O)N[C@H](CO)C(=O)N[C@H](Cc1c[nH]cn1)C(=O)N[C@H](CCCCN)C(=O)N[C@H](CCCCN)C(N)=O [D-TCTP-PTD 13] (Ac-[dM][dI][dI][dF][dR][dA][dL][dI][dS][dH][dK][dK]-NH2) | – | – | 6.8% and 6.8 ± 2.0% | – | 645.5 ± 191.2 | – | – | 13.8 ± 4.2 | 14.0 ± 2.4 | more potent antigen carrier | – | – | – | – | – | – | –
3 | CC[C@H](C)[C@H](NC(=O)[C@H](CC(C)C)NC(=O)[C@H](C)NC(=O)[C@H](CCCNC(=N)N)NC(=O)[C@H](Cc1ccccc1)NC(=O)[C@@H](NC(=O)[C@@H](NC(=O)[C@H](CCSC)NC(C)=O)[C@@H](C)CC)[C@@H](C)CC)C(=O)N[C@@H](CO)C(=O)N[C@@H](Cc1c[nH]cn1)C(=O)N[C@@H](CCCCN)C(=O)N[C@@H](CCCCN)C(N)=O [L-TCTP-PTD 13] (Ac-MIIFRALISHKK-NH2) | – | 9.0 ± 1.4 | 22.1% and 22.1 ± 2.5% | 847.1 ± 132.9 | 2081.7 ± 238.6 | 26.4 ± 7.8 | 12.0 ± 2.0 | 53.4 ± 6.7 | 10.0 ± 0.0 | – | enhanced nasal absorption | – | – | – | – | – | –
4 | Insulin: Human recombinant insulin (27.5 IU/mg), Sigma-Aldrich | – | – | – | – | – | – | – | – | – | – | – | 2356.4 ± 106.2 | 180.5 ± 37.6 | scarcely detectable | 40.9 ± 0.9 | 721.0 ± 478.2 | 11354.3 ± 507.8
